The target of one test is T1, human H1 (Homo sapiens, UniProt P35367).
T1 construct: host or cells: CHO-K1
Nature of the test: In vitro histamine receptor cell-based assay (aequorin bioluminescence), H1 antagonism. Particulars: CHO-K1 cells expressing human H1 and aequorin; histamine at EC80; read-out: H1 Antagonist EC50. In short, it runs like this:
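Antagonism read as drop in aequorin luminescence after histamine challenge at a predetermined EC80, following 15 min compound pretreatment at room temperature. Cells: CHO-K1 carrying human H1, or H4 with Gα16; signal as AUC or amplitude, normalised to 10 μM diphenhydramine (H1) or JNJ7777120 (H4).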

Another test addresses T2, human H4 (Homo sapiens, UniProt Q9H3N8).
T2 construct: host or cells: CHO-K1
Nature of the test: In vitro histamine receptor cell-based assay (aequorin bioluminescence), H4 antagonism. To be noted: CHO-K1 cells expressing human H4, aequorin and Gα16; histamine at EC80; read-out: H4 Antagonist EC50. In short, it runs like this:
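Antagonism read as loss of aequorin luminescence after histamine (EC80 final) addition, following 15 min room-temperature compound pretreatment of coelenterazine-h-loaded (5 μM) CHO-K1 cells co-expressing human H4 and Gα16. Efficacy given relative to 10 μM JNJ7777120; agonism excluded in separate no-histamine runs.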

As a reminder, the EC50 is the concentration giving half of the maximal effect.

Where a name gives a salt, the structure may show the parent alone.

T1 sequence (P35367 whole entry): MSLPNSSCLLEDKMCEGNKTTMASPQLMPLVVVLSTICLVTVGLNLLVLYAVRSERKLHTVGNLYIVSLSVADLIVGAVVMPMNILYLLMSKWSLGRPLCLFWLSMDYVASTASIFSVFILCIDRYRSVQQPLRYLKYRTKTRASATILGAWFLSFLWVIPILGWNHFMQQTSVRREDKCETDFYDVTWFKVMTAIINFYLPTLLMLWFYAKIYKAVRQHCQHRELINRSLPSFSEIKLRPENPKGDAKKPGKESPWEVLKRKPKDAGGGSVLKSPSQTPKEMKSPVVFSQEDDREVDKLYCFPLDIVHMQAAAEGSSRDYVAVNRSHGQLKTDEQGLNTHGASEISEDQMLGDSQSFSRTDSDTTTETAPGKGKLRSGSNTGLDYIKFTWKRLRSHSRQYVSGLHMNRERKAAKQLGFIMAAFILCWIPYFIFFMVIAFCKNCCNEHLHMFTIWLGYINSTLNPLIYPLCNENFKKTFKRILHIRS
T2 sequence (Q9H3N8 whole entry): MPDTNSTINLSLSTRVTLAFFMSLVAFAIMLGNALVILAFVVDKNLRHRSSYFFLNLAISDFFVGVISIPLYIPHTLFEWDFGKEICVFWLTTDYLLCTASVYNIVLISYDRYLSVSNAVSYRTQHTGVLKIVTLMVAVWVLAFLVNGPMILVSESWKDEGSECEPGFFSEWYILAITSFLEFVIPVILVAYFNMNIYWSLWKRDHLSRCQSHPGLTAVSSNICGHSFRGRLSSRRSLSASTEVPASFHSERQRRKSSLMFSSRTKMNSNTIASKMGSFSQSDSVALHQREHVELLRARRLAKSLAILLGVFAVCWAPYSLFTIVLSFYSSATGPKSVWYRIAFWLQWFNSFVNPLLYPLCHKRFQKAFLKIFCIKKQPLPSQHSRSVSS

With `NC1CCN(c2nc3ccc(Cl)cc3n3cnnc23)CC1` [Example 81, 1-(8-chloro-[1,2,4]triazolo[4,3-a]quinoxalin-4-yl)piperidin-4-amine], the EC50 on human H1 and on human H4 was more than 10 µM in each case.

In the case of `CCc1ccc2nc(N3CCNCC3)n3nc(C)nc3c2c1` [Example 140, 9-ethyl-2-methyl-5-(piperazin-1-yl)-[1,2,4]triazolo[1,5-c]quinazoline], the EC50 was more than 10 µM on human H1 and less than 10 µM at human H4.

For `Cc1nc2c(N3CCNCC3)nc3cc(F)c(Cl)cc3c2o1` [Example 217, 8-chloro-7-fluoro-2-methyl-4-(piperazin-1-yl)oxazolo[4,5-c]quinoline], the EC50 at human H1 was more than 10 µM; at human H4, less than 10 µM.

Regarding `CN1CCN(c2nc3cc(F)c(Br)cc3n3cnnc23)CC1` [Example 185, 8-bromo-7-fluoro-4-(4-methylpiperazin-1-yl)-[1,2,4]triazolo[4,3-a]quinoxaline], the EC50 at human H1 was more than 10 µM; at human H4, less than 10 µM.

Turning to `Cc1nc2c3cc(Cl)c(C(F)(F)F)cc3nc(N3CCNCC3)n2n1` [Example 132, 9-chloro-2-methyl-5-(piperazin-1-yl)-8-(trifluoromethyl)-[1,2,4]triazolo[1,5-c]quinazoline hydrochloride], the results for the EC50 on human H1 and on human H4 were more than 10 µM and less than 10 µM, respectively.

As for `Cc1nc2c3cc(Cl)c(C(F)(F)F)cc3nc(N3CCN(C)CC3)n2n1` [Example 131, 9-chloro-2-methyl-5-(4-methylpiperazin-1-yl)-8-(trifluoromethyl)-[1,2,4]triazolo[1,5-c]quinazoline hydrochloride], the results for the EC50 on human H1 and on human H4 were more than 10 µM and less than 10 µM, respectively.

For `CN1CCN(c2nc3cc(Cl)c(F)cc3n3cnnc23)CC1` [Example 33, 7-chloro-8-fluoro-4-(4-methylpiperazin-1-yl)-[1,2,4]triazolo[4,3-a]quinoxaline], the EC50 was more than 10 µM on human H1 and less than 10 µM on human H4.

In the case of `Fc1cc2nc(N3CCNCC3)c3nnnn3c2cc1F` [Example 191, 7,8-difluoro-4-(piperazin-1-yl)tetrazolo[1,5-a]quinoxaline], the EC50 at human H1 was more than 10 µM; at human H4, less than 10 µM.

In the case of `Clc1ccc2c(c1)N1CCN=C1C(N1CCNCC1)=N2` [Example 6, 8-Chloro-4-(piperazin-1-yl)-1,2-dihydroimidazo[1,2-a]quinoxaline], the values for the EC50 on human H1 and at human H4 were more than 10 µM and less than 10 µM, respectively.

As to `Clc1ccc2nc(N3CCNCC3)c3nccn3c2c1` [Example 8, 8-Chloro-4-(piperazin-1-yl)imidazo[1,2-a]quinoxaline], the figures for the EC50 at human H1 and on human H4 were more than 10 µM and less than 10 µM, respectively.

On to `Cc1nnc2c(N3CCNCC3)nc3ccc(Cl)cc3n12` [Example 85, 8-chloro-1-methyl-4-(piperazin-1-yl)-[1,2,4]triazolo[4,3-a]quinoxaline], for which the EC50 at human H1 and at human H4 was more than 10 µM throughout.

For `CN1CCN(c2nc3cc(F)c(Cl)cc3n3nnnc23)CC1` [Example 189, 8-chloro-7-fluoro-4-(4-methylpiperazin-1-yl)tetrazolo[1,5-a]quinoxaline], the EC50 was more than 10 µM on human H1 and less than 10 µM at human H4.

As to `CN1CCN(c2nc3ccc(C(F)(F)F)cc3c3c[nH]nc23)CC1` [Example 157, 4-(4-Methylpiperazinyl)-8-(trifluoromethyl)pyrazolo[3,4-c]quinoline], the EC50 at human H1 was more than 10 µM; on human H4, less than 10 µM.

Turning to `FC(F)(F)Oc1ccc2nc(N3CCNCC3)c3nncn3c2c1` [Example 51, 4-(piperazin-1-yl)-8-(trifluoromethoxy)-[1,2,4]triazolo[4,3-a]quinoxaline], the EC50 is more than 10 µM at human H1 and less than 10 µM at human H4.

Regarding `Fc1c(C(F)(F)F)ccc2nc(N3CCNCC3)c3nncn3c12` [Example 169, 9-fluoro-4-(piperazin-1-yl)-8-(trifluoromethyl)-[1,2,4]triazolo[4,3-a]quinoxaline], the EC50 on human H1 was more than 10 µM; on human H4, less than 10 µM.

Take `CN1CC=C(c2nc3ccc(Cl)cc3n3cnnc23)CC1` [Example 2, 8-Chloro-4-(1-methyl-1,2,3,6-tetrahydropyridin-4-yl)-[1,2,4]triazolo[4,3-a]quinoxaline]: the EC50 at human H1 was more than 10 µM; on human H4 it was less than 10 µM.

Consider `Clc1ccc2nc(OC3CNC3)c3nncn3c2c1` [Example 72, 4-(azetidin-3-yloxy)-8-chloro-[1,2,4]triazolo[4,3-a]quinoxaline], for which the concentration giving a half-maximal response (EC50) on human H1 and at human H4 was more than 10 µM each time.

For the molecule `CN1CCN(c2nc3ccc(Br)cc3c3conc23)CC1` [Example 222, 8-bromo-4-(4-methylpiperazin-1-yl)isoxazolo[3,4-c]quinoline], the EC50 on human H1 is more than 10 µM; on human H4, less than 10 µM.

As for `Cc1nc2c3cc(Cl)c(Cl)cc3nc(N3CCNCC3)n2n1` [Example 94, 8,9-Dichloro-2-methyl-5-(piperazin-1-yl)-[1,2,4]triazolo[1,5-c]quinazoline], the EC50 at human H1 is more than 10 µM; at human H4 it was less than 10 µM.

As to `CN1CCN(c2nc3cc(F)c(F)cc3n3nnnc23)CC1` [Example 190, 7,8-difluoro-4-(4-methylpiperazin-1-yl)tetrazolo[1,5-a]quinoxaline], the EC50 at human H1 was more than 10 µM; on human H4 it was less than 10 µM.

Consider `Clc1ccc2c(c1)nc(N1CCNCC1)c1nnnn12` [Example 16, 7-Chloro-4-(piperazin-1-yl)tetrazolo[1,5-a]quinoxaline], for which the EC50 on human H1 was more than 10 µM; on human H4, less than 10 µM.

For the molecule `CNC1CCN(c2nc3ccc(Cl)cc3n3cnnc23)C1` (stereo not drawn) [Example 60, 1-(8-chloro-[1,2,4]triazolo[4,3-a]quinoxalin-4-yl)-N-methylpyrrolidin-3-amine], the EC50 on human H1 is more than 10 µM; at human H4 it was less than 10 µM.

With `CN(C)CCN(C)c1nc2ccc(Cl)cc2n2cnnc12` [Example 78, N^1-(8-chloro-[1,2,4]triazolo[4,3-a]quinoxalin-4-yl)-N^1,N^2,N^2-trimethylethane-1,2-diamine], the EC50 at human H1 and at human H4 was more than 10 µM throughout.

In the case of `CN1CCN(c2nc3ccc(Cl)cc3c3c2ncn3C)CC1` [Example 159, 8-Chloro-1-methyl-4-(4-methylpiperazin-1-yl)-1H-imidazo[4,5-c]quinoline], the half-maximal effective concentration (EC50) at human H1 is more than 10 µM; on human H4, less than 10 µM.

As for `CN1CCN(c2nc3cc(Cl)ccc3c3nccnc23)CC1` [Example 250, 8-chloro-5-(4-methylpiperazin-1-yl)pyrazino[2,3-c]quinoline], the EC50 on human H1 and on human H4 was less than 10 µM throughout.

Regarding `Cn1cc2c(n1)c(N1CCNCC1)nc1ccc(C(F)(F)F)cc12` [Example 156, 2-Methyl-4-piperazinyl-8-(trifluoromethyl)pyrazolo[3,4-c]quinoline HCl salt], the EC50 at human H1 and on human H4 was less than 10 µM in each case.

Turning to `Clc1cc2nc(N3CCNCC3)c3nncn3c2cc1Cl` [Example 168, 7,8-dichloro-4-(piperazin-1-yl)-[1,2,4]triazolo[4,3-a]quinoxaline], the EC50 is more than 10 µM on human H1 and less than 10 µM at human H4.

Turning to `Clc1ccc2nc(N3CCNCC3)n3nc(Cc4ccccc4)nc3c2c1` [Example 119, 2-Benzyl-9-chloro-5-(piperazin-1-yl)-[1,2,4]triazolo[1,5-c]quinazoline], the EC50 at human H1 and at human H4 was more than 10 µM throughout.

Turning to `CC1(C)CN(c2nc3ccc(Cl)cc3n3cnnc23)CCN1` [Example 82, 8-chloro-4-(3,3-dimethylpiperazin-1-yl)-[1,2,4]triazolo[4,3-a]quinoxaline], the EC50 on human H1 is more than 10 µM; at human H4 it was less than 10 µM.

On to `CN1CCN(c2nc3ccc(C(F)(F)F)cc3c3conc23)CC1` [Example 218, 4-(4-methylpiperazin-1-yl)-8-(trifluoromethyl)isoxazolo[3,4-c]quinoline], for which the EC50 on human H1 is more than 10 µM; at human H4 it was less than 10 µM.

With `Clc1ccc2nc(NCCN3CCOCC3)c3nncn3c2c1` [Example 71, 8-chloro-N-(2-morpholinoethyl)-[1,2,4]triazolo[4,3-a]quinoxalin-4-amine], the EC50 at human H1 and on human H4 was more than 10 µM throughout.

As to `Cc1nc2c(N3CCN(C)CC3)nc3ccc(C(F)(F)F)cc3c2o1` [Example 214, 2-methyl-4-(4-methylpiperazin-1-yl)-8-(trifluoromethyl)oxazolo[4,5-c]quinoline], the EC50 at human H1 was more than 10 µM; at human H4, less than 10 µM.

As to `CN1CCN(C2=Nc3ccc(Cl)cc3N3CCN=C23)CC1` [Example 5, 8-Chloro-4-(4-methylpiperazin-1-yl)-1,2-dihydroimidazo[1,2-a]quinoxaline], the EC50 on human H1 is more than 10 µM; at human H4, less than 10 µM.

With `CCc1ccc2nc(N3CCN(C)CC3)n3nc(C)nc3c2c1` [Example 139, 9-ethyl-2-methyl-5-(4-methylpiperazin-1-yl)-[1,2,4]triazolo[1,5-c]quinazoline], the EC50 on human H1 is more than 10 µM; at human H4 it was less than 10 µM.

As for `Cc1nc2c3cc(C(F)(F)F)cc(F)c3nc(N3CCNCC3)n2n1` [Example 128, 7-fluoro-2-methyl-5-(piperazin-1-yl)-9-(trifluoromethyl)-[1,2,4]triazolo[1,5-c]quinazoline hydrochloride], the results for the EC50 at human H1 and on human H4 were more than 10 µM and less than 10 µM, respectively.

For the molecule `CCc1ccc2nc(N3CCN(C)CC3)c3nncn3c2c1` [Example 90, 8-ethyl-4-(4-methylpiperazin-1-yl)-[1,2,4]triazolo[4,3-a]quinoxaline], the EC50 at human H1 was more than 10 µM; at human H4, less than 10 µM.

(Values after patent US20120065187A1 (ALCON RESEARCH, LTD, priority 2008, published 2012).)
